Reference: BindingDB's records for doi:10.1021/acs.jmedchem.9b01508 (Virginia Tech, 2020)

Assay: Inhibition of human SphK2 expressed in Saccharomyces cerevisiae KYA1 assessed as yeast growth measured after 24 hrs

Row | EC50 [nM] | SMILES
1 | 59 | N=C(N)N1CCC[C@H]1c1nc(-c2ccc(OCc3ccc(C(F)(F)F)cc3)c(C(F)(F)F)c2)no1
2 | 37 | CCCc1cc(-c2noc([C@@H]3CCCN3C(=N)N)n2)ccc1OCc1ccc(C(F)(F)F)cc1
3 | 50 | N=C(N)N1CCC[C@H]1c1nc(-c2ccc(OCc3ccc(C(F)(F)F)cc3)c(C3CC3)c2)no1
4 | 146 | CCc1cc(-c2noc([C@@H]3CCCN3C(=N)N)n2)ccc1OCc1ccc(C(F)(F)F)cc1
5 | 32 | CC(C)c1cc(-c2noc([C@@H]3CCCN3C(=N)N)n2)ccc1OCc1ccc(C(F)(F)F)cc1
6 | 73 | CC(C)(C)c1cc(-c2noc([C@@H]3CCCN3C(=N)N)n2)ccc1OCc1ccc(C(F)(F)F)cc1
7 | 84 | C=CCc1cc(-c2noc([C@@H]3CCCN3C(=N)N)n2)ccc1OCc1ccc(C(F)(F)F)cc1
